Measured values as given in publication PMC4183655, “Discovery and Optimization of Small-Molecule Ligands for the CBP/p300 Bromodomains” (Journal of the American Chemical Society, 2014).

What was measured:
CBP [1] = target: T1, CBP (Homo sapiens, UniProt Q92793); assay: DSF (ΔTm) thermal stability assay; format: binding; conditions: compound concentration 10 μM; mean ± SEM (number of measurements)
CBP [2] = target: T1, CBP; assay: Isothermal titration calorimetry (ITC); conditions: for ITC 9T∆S, CBP: At T = 298.15 K
BRD4(1) [3] = target: T2, BRD4(1) (Homo sapiens, UniProt O60885); assay: Isothermal titration calorimetry (ITC); conditions: for ITC 9T∆S, BRD4(1): At T = 298.15 K; for Selectivity for CBP over BRD4(1): from ITC Kd values
BRD4(1) [4] = target: T2, BRD4(1); assay: DSF (ΔTm) thermal stability assay; format: binding; conditions: compound concentration 10 μM; mean ± SEM (number of measurements)
CBP [5] = target: T1, CBP; assay: Peptide displacement AlphaScreen; format: binding; conditions: mean ± SEM (number of measurements); read-out: CBP AlphaScreen pIC50 (converted)
[6] = tested on: GFP-tagged 3 × CBP BRD construct; assay: Fluorescence recovery after photo-bleaching (FRAP) assay; conditions: HeLa cells, DMSO + SAHA, no BRD inhibitor

T1 sequence (Q92793 1085-1192 limits assumed): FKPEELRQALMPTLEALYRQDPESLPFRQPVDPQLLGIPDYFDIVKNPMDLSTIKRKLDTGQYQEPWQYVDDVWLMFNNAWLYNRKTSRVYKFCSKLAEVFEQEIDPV

Row | Structure (SMILES) | ΔTm at 10 µM (CBP [1]) | ITC N (molar binding ratio of the ligand-protein interaction), CBP (CBP [2]) | ITC ∆G, CBP (CBP [2]) | ITC ∆H, CBP (CBP [2]) | ITC 9T∆S, CBP (CBP [2]) | Kd (CBP [2]; ITC Ka, CBP) | ITC N (molar binding ratio of the ligand-protein interaction), BRD4(1) (BRD4(1) [3]) | ITC ∆G, BRD4(1) (BRD4(1) [3]) | ITC ∆H, BRD4(1) (BRD4(1) [3]) | ITC 9T∆S, BRD4(1) (BRD4(1) [3]) | Kd (BRD4(1) [3]; ITC Ka, BRD4(1)) | ITC Ka, BRD4(1) (BRD4(1) [3]) | Selectivity for CBP over BRD4(1) (BRD4(1) [3]) | Kd (BRD4(1) [3]; ITC Kd BRD4(1), 15 °C) | Kd (CBP [2]; ITC Kd CBP, 15 °C) | ΔTm at 10 µM (BRD4(1) [4]) | IC50 (CBP [5]) | FRAP half-time of fluorescence recovery (t1/2), GFP-tagged 3× CBP BRD [6]
1 | COc1ccc(CCc2nc3cc(-c4c(C)noc4C)ccc3n2CCN2CCOCC2)cc1 [Compound 26] | 8.1 °C | – | – | – | – | – | – | – | – | – | – | – | – | – | – | – | – | –
2 | Cc1noc(C)c1-c1ccc2c(c1)nc(CCc1cccc(F)c1)n2CCN1CCOCC1 [Compound 30] | 7.1 °C | – | – | – | – | – | – | – | – | – | – | – | – | – | – | – | – | –
3 | Cc1noc(C)c1-c1ccc2c(c1)nc(CCc1ccc(F)cc1)n2CCN1CCOCC1 [Compound 31] | – | 0.887 ± 0.00152 | -9.98 kcal/mol | -9.63 ± 0.0319 kcal/mol | -0.346 kcal/mol | 27.7 nM | 0.674 ± 0.00495 | -8.35 kcal/mol | -8.02 ± 0.0815 kcal/mol | -0.331 kcal/mol | 478 nM | – | – | – | – | – | – | –
4 | COc1ccc(CCc2nc3cc(-c4c(C)noc4C)ccc3n2CCN2CCOCC2)cc1Cl [Compound 32] | 9 °C | 1.18 ± 0.00143 | -10.1 kcal/mol | -10.8 ± 0.0290 kcal/mol | 0.760 kcal/mol | 22.3 nM | 0.604 ± 0.00325 | -8.32 kcal/mol | -9.99 ± 0.0746 kcal/mol | 1.670 kcal/mol | – | 2.26 ± 0.121 106 M91 | 17-fold | – | – | – | – | –
5 | COc1ccc(CCc2nc3cc(-c4c(C)noc4C)ccc3n2CCN2CCOCC2)cc1F [Compound 33] | 9.6 °C | – | – | – | – | – | – | – | – | – | – | – | 20-fold | 440 ± 25 nM | – | – | – | –
6 | Cc1noc(C)c1-c1ccc2c(c1)nc(CCc1nc3ccccc3s1)n2CCN1CCOCC1 [Compound 35] | – | 0.703 ± 0.00135 | -9.94 kcal/mol | -9.30 ± 0.0342 kcal/mol | -0.638 kcal/mol | 30.2 nM | 0.645 ± 0.00594 | -8.10 kcal/mol | -9.34 ± 0.118 kcal/mol | 1.240 kcal/mol | 662 nM | – | – | – | – | – | – | –
7 | Cc1noc(C)c1-c1ccc2c(c1)nc(CCn1ccc3ccccc31)n2CCN1CCOCC1 [Compound 36] | 8.9 °C | – | – | – | – | – | – | – | – | – | – | – | 22-fold | 660 ± 55 nM | 30 ± 2.1 nM | – | – | –
8 | COc1ccc(CCc2cc3cc(-c4c(C)noc4C)ccc3n2CCN2CCOCC2)cc1Cl [Compound 40] | 2 °C | – | – | – | – | – | – | – | – | – | – | – | – | – | – | < 1 °C | – | –
9 | Cc1noc(C)c1-c1ccc(NC[C@H](C)N2CCOCC2)c([N+](=O)[O-])c1 [Compound 57] | – | 0.983 ± 0.00535 | -8.50 kcal/mol | -14.0 ± 0.0994 kcal/mol | 5.72 kcal/mol | 368 nM | 1.04 ± 0.0101 | -7.78 kcal/mol | -8.50 ± 0.108 kcal/mol | 0.725 kcal/mol | 1210 nM | – | – | – | – | – | – | –
10 | Cc1noc(C)c1-c1ccc2c(c1)nc(CCn1ccc3ccccc31)n2C[C@@H](C)N1CCOCC1 [Compound 60] | – | 0.88 ± 0.00202 | -10.0 kcal/mol | -9.59 ± 0.0406 kcal/mol | -0.420 kcal/mol | 26.2 nM | 0.84 ± 0.0113 | -8.30 kcal/mol | -7.46 ± 0.127 kcal/mol | -0.844 kcal/mol | 532 nM | – | – | – | – | – | – | –
11 | Cc1noc(C)c1-c1ccc2c(c1)nc(CCn1ccc3ccccc31)n2C[C@H](C)N1CCOCC1 [Compound 61] | ~10 °C | 1.01 ± 0.00517 | -8.58 kcal/mol | -12.5 ± 0.0855 kcal/mol | 3.94 kcal/mol | 239 nM | 0.862 ± 0.00663 | -8.09 kcal/mol | -9.21 ± 0.0912 kcal/mol | 1.12 kcal/mol | 685 nM | – | 20-fold | 530 ± 74 nM | 26 ± 2.6 nM | – | < 100 nM | –
12 | COc1ccc(CCc2nc3cc(-c4c(C)noc4C)ccc3n2C[C@@H](C)N2CCOCC2)cc1F [Compound 62] | – | 1.08 ± 0.0029 | -9.71 kcal/mol | -11.1 ± 0.0496 kcal/mol | 1.37 kcal/mol | 39.4 nM | 0.859 ± 0.00961 | -8.17 kcal/mol | -9.15 ± 0.128 kcal/mol | 0.978 kcal/mol | 606 nM | – | – | – | – | – | – | –
13 | COc1ccc(CCc2nc3cc(-c4c(C)noc4C)ccc3n2C[C@H](C)N2CCOCC2)cc1F [Compound 63] | ~10 °C | – | – | – | – | – | – | – | – | – | – | – | 16-fold | 610 ± 54 nM | 39 ± 2.9 nM | – | < 100 nM | –
14 | O=C(CCCCCCC(=O)Nc1ccccc1)NO [SAHA, reference compound] | – | – | – | – | – | – | – | – | – | – | – | – | – | – | – | – | – | 0.79 s
